# Read-outs that look alike come from different tables or passages of the source.
# Legend:
# [1] = target: T1, H278N mutant mouse delta opioid receptor (Mus musculus, UniProt P32300, H278N); assay: biochemical; format: binding
# T1 construct: expressed in transfected cells; host or cells: COS-7 (transient, pCMV6c)
# [2] = target: T2, cloned mouse δ receptor (Mus musculus, UniProt P32300); assay: biochemical; format: binding
# T2 construct: expressed in transfected cells
# [3] = target: T3, cloned mouse κ receptor (Mus musculus, UniProt P33534); assay: biochemical; format: binding
# T3 construct: expressed in transfected cells
# T3 sequence (P33534 whole entry): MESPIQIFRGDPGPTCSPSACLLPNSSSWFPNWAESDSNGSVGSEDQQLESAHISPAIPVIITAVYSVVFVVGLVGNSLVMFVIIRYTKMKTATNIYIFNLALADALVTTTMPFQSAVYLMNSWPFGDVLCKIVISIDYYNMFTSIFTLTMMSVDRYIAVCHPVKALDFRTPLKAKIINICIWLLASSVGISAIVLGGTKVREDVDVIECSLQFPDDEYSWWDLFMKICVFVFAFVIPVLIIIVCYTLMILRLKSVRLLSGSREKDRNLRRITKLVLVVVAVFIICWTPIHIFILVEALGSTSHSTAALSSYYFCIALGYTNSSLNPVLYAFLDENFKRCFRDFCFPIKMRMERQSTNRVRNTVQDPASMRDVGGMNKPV
# [4] = target: T4, wild-type mouse delta opioid receptor (Mus musculus, UniProt P32300); assay: biochemical; format: binding
# T4 construct: expressed in transfected cells; host or cells: COS-7 (transient, pCMV6c)
# T4 sequence (P32300 whole entry): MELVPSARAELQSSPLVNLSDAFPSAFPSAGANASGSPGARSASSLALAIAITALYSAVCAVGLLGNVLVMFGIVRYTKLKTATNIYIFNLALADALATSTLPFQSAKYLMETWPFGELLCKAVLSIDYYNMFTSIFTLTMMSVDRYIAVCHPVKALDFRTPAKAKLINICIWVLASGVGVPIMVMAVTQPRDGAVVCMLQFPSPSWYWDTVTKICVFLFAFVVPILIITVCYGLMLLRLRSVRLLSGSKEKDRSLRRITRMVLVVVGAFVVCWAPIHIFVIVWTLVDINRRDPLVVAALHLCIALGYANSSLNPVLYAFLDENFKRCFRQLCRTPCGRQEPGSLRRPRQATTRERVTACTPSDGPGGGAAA
# [5] = target: T5, D128N mutant mouse delta opioid receptor (Mus musculus, UniProt P32300, D128N); assay: biochemical; format: binding
# T5 construct: expressed in transfected cells; host or cells: COS-7 (transient, pCMV6c)
# T5 sequence (P32300 whole entry D128N): as the sequence (P32300 whole entry) above, with D128N counted along it
# [6] = target: T6, mouse delta opioid receptor aspartate 95 to asparagine mutant (Mus musculus, UniProt P32300, D95N); assay: Binding to delta receptor mutant with aspartate 95 converted to asparagine, COS-7 cells
# T6 construct: expressed in transfected cells; host or cells: COS-7
# T6 sequence (P32300 whole entry D95N): as the sequence (P32300 whole entry) above, with D95N counted along it
# [7] = target: T7, cloned rat μ receptor (Rattus norvegicus, UniProt P33535); assay: biochemical; format: binding
# T7 construct: expressed in transfected cells; host or cells: COS-7 (transient)
# T7 sequence (P33535 whole entry): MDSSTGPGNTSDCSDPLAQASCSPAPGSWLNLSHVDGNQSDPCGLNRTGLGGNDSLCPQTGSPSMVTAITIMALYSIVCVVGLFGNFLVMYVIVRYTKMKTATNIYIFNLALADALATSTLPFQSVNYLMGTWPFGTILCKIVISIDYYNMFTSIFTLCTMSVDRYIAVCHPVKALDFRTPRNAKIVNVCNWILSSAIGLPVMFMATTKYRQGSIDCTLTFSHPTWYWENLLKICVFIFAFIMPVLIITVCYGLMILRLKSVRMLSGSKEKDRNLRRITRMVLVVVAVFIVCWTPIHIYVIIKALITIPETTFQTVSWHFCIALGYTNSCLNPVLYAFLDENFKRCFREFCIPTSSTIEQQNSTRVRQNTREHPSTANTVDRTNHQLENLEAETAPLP
# [8] = target: κ1-78/δ70-372 chimeric receptor (Mus musculus, UniProt P32300+P33534, A193I/A281G/D128E/D204G/D206V/DEL208-209/DEL216-217/DEL300-312/E203D/E218S/E297A/F225V/F314L/G197A/G198V/I133A/I135L/I177L/I191V/I194M/I237V/I243T/I250L/I284V/I285V/I294L/I85V/INS221Y/INS293VIVWTLVDINRRDP/K200Q/K254R/K274R/L173A/L184V/L196M/L224T/L275M/L295V/M112L/M226T/M90L/N122E/N268S/R263K/S123T/S188G/S192P/S211M/T110S/T247G/T288A/T321A/V108A/V118K/V129L/V201P/V205A/V232L/V239I/V282A/V83G/Y219P/Y313H); assay: biochemical
# Chain of κ1-78/δ70-372 chimeric receptor (P33534+P32300 fused with the stated changes): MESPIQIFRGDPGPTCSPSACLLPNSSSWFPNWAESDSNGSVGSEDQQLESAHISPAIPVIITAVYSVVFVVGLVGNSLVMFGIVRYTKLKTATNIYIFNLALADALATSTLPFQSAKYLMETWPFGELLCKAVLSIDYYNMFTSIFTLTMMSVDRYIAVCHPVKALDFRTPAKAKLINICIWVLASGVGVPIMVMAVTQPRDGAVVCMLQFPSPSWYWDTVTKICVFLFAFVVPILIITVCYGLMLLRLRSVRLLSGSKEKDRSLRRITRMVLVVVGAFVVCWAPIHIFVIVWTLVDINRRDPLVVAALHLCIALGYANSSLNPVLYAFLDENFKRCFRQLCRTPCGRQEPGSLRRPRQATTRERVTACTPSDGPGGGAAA
# [9] = target: T8, cloned human μ opioid receptor (Homo sapiens, UniProt P35372); format: binding
# T8 construct: This fragment includes the entire coding region of the human μ opioid receptor; expressed in transfected cells; host or cells: COS-7 (transient, pcDNA3)
# T8 sequence (P35372 whole entry, the tested form may be a part): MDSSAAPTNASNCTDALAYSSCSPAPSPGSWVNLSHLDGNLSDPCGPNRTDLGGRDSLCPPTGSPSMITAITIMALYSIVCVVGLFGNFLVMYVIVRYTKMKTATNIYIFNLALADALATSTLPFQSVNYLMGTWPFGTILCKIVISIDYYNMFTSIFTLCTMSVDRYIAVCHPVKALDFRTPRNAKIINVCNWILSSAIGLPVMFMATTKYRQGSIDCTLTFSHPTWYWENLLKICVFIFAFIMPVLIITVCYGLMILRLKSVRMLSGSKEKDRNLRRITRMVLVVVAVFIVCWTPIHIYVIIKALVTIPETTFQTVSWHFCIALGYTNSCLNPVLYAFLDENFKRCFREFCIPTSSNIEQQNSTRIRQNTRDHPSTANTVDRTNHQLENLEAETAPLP
# [10] = target: T9, MOP2 (Mus musculus, UniProt P35377); format: cell-based
# T9 construct: expressed in transfected cells; host or cells: COS-7 (transient)
# T9 sequence (P35377 whole entry): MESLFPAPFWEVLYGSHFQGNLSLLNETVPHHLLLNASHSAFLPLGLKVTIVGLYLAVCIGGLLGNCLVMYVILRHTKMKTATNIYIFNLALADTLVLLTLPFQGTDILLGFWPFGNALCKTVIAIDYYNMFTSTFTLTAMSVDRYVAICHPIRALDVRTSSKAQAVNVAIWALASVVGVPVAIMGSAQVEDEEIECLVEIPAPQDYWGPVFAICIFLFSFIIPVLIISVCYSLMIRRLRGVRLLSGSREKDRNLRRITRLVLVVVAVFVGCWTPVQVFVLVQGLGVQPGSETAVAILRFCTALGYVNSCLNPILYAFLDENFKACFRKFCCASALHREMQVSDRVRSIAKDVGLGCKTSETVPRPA
# [11] = target: T5, D128N mutant mouse delta opioid receptor; assay: Forskolin-stimulated cAMP accumulation, COS-7 cells, D128N mutant; format: cell-based
# Method: (§1) Briefly, COS-7 cells were subcultured in 12-well culture plates. The cells were transfected 48 hrs. prior to the cAMP experiments. Culture medium was removed from the wells and replaced with 500 μl of fresh medium containing 0.5 mM isobutylmethylxanthine (IBMX). Cells were incubated for 20 min at 37° C. Medium was removed and replaced with fresh medium containing 0.5 mM IBMX, with or without 10 μM forskolin and various opioid agonists. The cells were incubated for 30 min at 37° C. Medium was removed and cells sonicated in the wells in 500 μl of 1NCl. The HCl was evaporated off in a Speed-Vac and the cAMP analyzed using a radioimmunoassay kit from NEN/Dupont (Wilmington, Del.).
# [12] = target: T4, wild-type mouse delta opioid receptor; assay: Forskolin-stimulated cAMP accumulation, COS-7 cells, wild-type delta receptor; format: cell-based
# Method: as §1
# [13] = target: T1, H278N mutant mouse delta opioid receptor; assay: Forskolin-stimulated cAMP accumulation, COS-7 cells, H278N mutant; format: cell-based
# Method: as §1
# [14] = tested on: κ/δ2eloop chimera; format: binding
# [15] = target: T9, MOP2; format: binding
# [16] = target: kappa 1-74/delta65-372 chimera (Mus musculus, UniProt P32300+P33534, A193I/A281G/D128E/D204G/D206V/DEL208-209/DEL216-217/DEL300-312/E203D/E218S/E297A/F225V/F314L/G197A/G198V/I133A/I135L/I177L/I191V/I194M/I237V/I243T/I250L/I284V/I285V/I294L/I85V/INS221Y/INS293[…]/K200Q/K254R/K274R/L173A/L184V/L196M/L224T/L275M/L295V/M112L/M226T/M90L/N122E/N268S/R263K/S123T/S188G/S192P/S211M/T110S/T247G/T288A/T321A/V108A/V118K/V129L/V201P/V205A/V232L/V239I/V282A/V83G/Y219P/Y313H)
# Chain of kappa 1-74/delta65-372 chimera (P33534+P32300 fused with the stated changes): as the sequence (P33534+P32300 fused with the stated changes) above
# [17] = target: T10, cloned rat μ opioid receptor (Rattus norvegicus, UniProt P33535); format: binding
# T10 construct: expressed in transfected cells; host or cells: COS-7 (transient)
# T10 sequence (P33535 whole entry): as the sequence (P33535 whole entry) above
# [18] = read-out: Binding potencies (Ki-nM) δ RECEPTOR [^3H] naltrindole
# [19] = read-out: Binding potencies (Ki-nM) κ RECEPTOR [^3H] U-69, 593
# [20] = read-out: Binding potencies (Ki-nM) μ RECEPTOR [^3H] DAMGO
# T1 sequence (P32300 whole entry H278N): as the sequence (P32300 whole entry) above, with H278N counted along it
# T2 sequence (P32300 whole entry): as the sequence (P32300 whole entry) above
compound,measurement,setting,value
Oc1ccc2c3c1O[C@H]1c4oc5ccccc5c4C[C@@]4(O)[C@@H](C2)N(CC2CC2)CC[C@]314 [NTB],Ki,"[1]; read-out: Potencies of Antagonist binding, H278N mutant (Ki values in nM)",0.03 nM
same,Ki,[2]; [18],0.013 nM
same,Ki,[3]; [19],13 nM
same,Ki,"[4]; read-out: Potencies of Antagonist binding, Wild-type (Ki values in nM)",0.04 nM
same,Ki,"[5]; read-out: Potencies of Antagonist binding, D128N mutant (Ki values in nM)",0.07 nM
same,Affinity of aspartate 95 mutant and wild-type delta receptors compared,[6],similar
same,Ki,[7]; [20],12 nM
Oc1ccc2c3c1O[C@H]1c4[nH]c5ccccc5c4C[C@@]4(O)[C@@H](C2)N(CC2CC2)CC[C@]314 [naltrindole],Ki,[1],0.5 nM
same,Ki,[3],66 nM
same,Ki,[4],1.4 nM
same,Ki,[5],5.6 nM
same,Affinity of aspartate 95 mutant and wild-type delta receptors compared,[6],similar
same,IC50,[8],0.25 nM
D-Ala^2-deltorphin II,"Binding to the cloned human receptor (inhibition of [3H]DAMGO binding), words",[9],did not bind
CCC12CCN(CC3(O)CC3)C(Cc3ccc(O)cc31)C2(C)C (racemic) [Bremazocine],Ki,[1],1.7 nM
same,"Effect on forskolin-stimulated cAMP formation, MOP2",[10],no effect
same,Ki,[2],2.3 nM
same,Ki,[3],0.089 nM
same,EC50,[11],80 nM
same,Ki,[4],58 nM
same,Ki,[5],2690 nM
same,Affinity of aspartate 95 mutant and wild-type delta receptors compared,[6],similar
same,Ki,[7],0.75 nM
same,EC50,[12],7.4 nM
same,EC50,[13],1.5 nM
Dynorphin A (1–17),Binding to the κ/δ2eloop chimera,[14],did not bind
CN1CC[C@]23CCCC[C@H]2[C@H]1Cc1ccc(O)cc13 [Levorphanol],Ki,[1],2.8 nM
same,"Effect on forskolin-stimulated cAMP formation, MOP2",[10],no effect
same,Ki,[2],5 nM
same,Ki,[3],6.5 nM
same,Ki,[4],187 nM
same,Ki,[5],4380 nM
CC(C)=CCN1CCC2(C)c3cc(O)ccc3CC1C2C (centres unmarked) [^3H-pentazocine],Specific binding of radioligand to MOP2,[15],did not bind specifically
Oc1ccc2c3c1O[C@H]1c4[nH]c5ccccc5c4C[C@@]4(O)[C@@H](C2)N(CC2CC2)CC[C@]314 [[^3H]naltrindole],Kd,[1],0.2 ± 0.1 nM
same,Kd,[2],0.18 nM
same,Binding of radioligand to the kappa 1-74/delta65-372 chimera,[16],potently bound
same,Kd,[4],0.6 ± 0.2 nM
same,Kd,[5],1.3 ± 0.6 nM
same,Specific binding of radioligand to MOP2,[15],did not bind specifically
Dynorphin A (1–8),Binding to the κ/δ2eloop chimera,[14],did not bind
CC[C@H](C)[C@H](NC(=O)[C@H](CCCNC(=N)N)NC(=O)[C@H](CCCNC(=N)N)NC(=O)[C@H](CC(C)C)NC(=O)[C@H](Cc1ccccc1)NC(=O)CNC(=O)CNC(=O)[C@@H](N)Cc1ccc(O)cc1)C(=O)N[C@@H](CCCNC(=N)N)C(=O)N1CCC[C@H]1C(=O)N[C@@H](CCCCN)C(=O)N[C@@H](CC(C)C)C(=O)N[C@@H](CCCCN)C(=O)N[C@@H](Cc1c[nH]c2ccccc12)C(=O)N[C@@H](CC(=O)O)C(=O)N[C@@H](CC(N)=O)C(=O)N[C@@H](CCC(N)=O)C(=O)O [Dynorphin],Binding to the κ/δ2eloop chimera,[14],did not bind
C[C@@H](NC(=O)[C@@H](N)Cc1ccc(O)cc1)C(=O)NCC(=O)N(C)[C@@H](Cc1ccccc1)C(=O)NCCO [[^3H]DAMGO],Specific binding of radioligand to MOP2,[15],did not bind specifically
"COC(=O)/C=C/C(=O)N[C@@H]1CC[C@@]2(O)[C@H]3Cc4ccc(O)c5c4[C@@]2(CCN3CC2CC2)[C@H]1O5 [β-FNA, β-funaltrexamine]",Ki,[2]; [18],48 nM
same,Ki,[3]; [19],2.8 nM
same,Ki,[9]; read-out: Binding potencies (Ki-nM) for the cloned human μ opioid receptor [^3H] DAMGO,0.29 nM
same,Ki,[7]; [20],0.33 nM
"CN1CC[C@]23c4c5ccc(O)c4O[C@H]2C(=O)C2(Cc4ccccc4C2)C[C@@]3(O)[C@H]1C5 [SIOM, 7-spiroindino-oxymorphone]",Ki,"[1]; read-out: Potencies of Agonists to Bind, H278N mutant (Ki values in nM)",1.8 nM
same,Ki,[3]; [19],> 1000 nM
same,Ki,"[4]; read-out: Potencies of Agonists to Bind, Wild-type (Ki values in nM)",46 nM
same,Ki,"[5]; read-out: Potencies of Agonists to Bind, D128N mutant (Ki values in nM)",1220 nM
same,Ki,[7]; [20],33 nM
pertussis toxin [PTX],Decrease of specific [3H]DAMGO labelling of the rat μ receptor,[17],42+/−5%
"O=C1/C(=C/c2ccccc2)C[C@@]2(O)[C@H]3Cc4ccc(O)c5c4[C@@]2(CCN3CC2CC2)[C@H]1O5 [BNTX, 7-Benyllidenenaltrexone]",Ki,[2]; [18],0.66 nM
same,Ki,[3]; [19],55 nM
same,Affinity of aspartate 95 mutant and wild-type delta receptors compared,[6],similar
same,Ki,[7]; [20],18 nM

# — patent US7235366B1 (priority 1993, dated 2007)
